Source: patent US11246308B2, “Ice-free preservation of large volume tissue samples for viable, functional tissue banking” (TISSUE TESTING TECHNOLOGIES LLC, priority 2016, dated 2022)

Key:
[1] = ice formation in VS55 supplemented with sugars stored at −80 C (FIG. 7); format: physicochemical; conditions: for sugar concentrations in VS55 that demonstrated ice (white) formation: 24 hours at −80° C.
Protocol: In this experiment 30 mL samples of VS55 with increasing concentrations of sugars were placed in 50 mL plastic tubes and stored in a −80 C mechanical storage freezer for 7 days. The tubes were checked daily for ice formation. […] After one day 0.4 to 0.6M trehalose and 0.5-0.6M sucrose were free of ice, while after 7 days 0.5-0.6M trehalose and 0.6M sucrose groups were free of ice. Lower concentrations of these sugars may still be used for ice-free vitrification but more rapid cooling and warming will be needed because the risk of ice formation will be greater and nanowarming rather than convection warming may be needed. Specifically, FIG. 7 is photograph illustrating the ice formation in VS55 supplemented with sugars at −80° C.: Top left: VS55 with 0-0.6M sucrose at 24 hours; Top right: VS55 with 0-0.6M trehalose at 24 hours. […] Higher concentrations were clear without ice. Bottom left: VS55 with 0-0.6M sucrose at 7 days; and Bottom right: VS55 with 0-0.6M trehalose at 7 days. After a week at −80° C. the highest concentrations of sugars are still free of ice.

[2] = visible ice formation during cooling and rewarming, 1st set of experiments; format: physicochemical; conditions: for visible ice formation: 0.6M sugar in both DP6 and VS49 formulations; for ice formation during cooling and rewarming: in the presence of the sugar, with nanowarming
Protocol: (§1) In the following ice-free cryopreservation formulation supplementation experiments, disaccharides (trehalose and sucrose) are added to various vitrification formulations (VS49, DP6, and VS55) in the amounts shown in FIG. 1 and compared to a solution (without trehalose and/or sucrose) to access the effectiveness at inhibiting ice formation in various tissues.
(§2) Tissues were gradually infiltrated with VS55 consisting of 3.10 M DMSO, 3.10M formamide, and 2.21 M propylene glycol in Euro-Collins solution at 4° C. using methods previously described for blood vessel vitrification, a dilution of VS55 to VS49 or DP6 consisting of 3 M DMSO, 3 M propylene glycol. Precooled dilute vitrification solutions (4° C.) are added in five sequential 15-min steps of increasing concentration on ice. The last cryoprotectant concentration with mNPs was added in a final sixth addition step in either precooled −10° C. or 4° C. full strength vitrification solution and kept in a −10° C. bath for 15 minutes or at 4° C. on ice in plastic tubes. The samples were then cooled in two steps, first rapid cooling to −100° C. by placing in a precooled 2-methylbutane bath at −135° C. and then by transfer to vapor phase nitrogen storage for slower cooling to below −135° C. Finally, the samples were stored below −130° C. in vapor phase nitrogen for at least 24 h before testing.
(§3) Warming was performed by either convection warming or nanowarming. Convection warming is a two-stage process including slow warming to −100° C. and then as rapid as possible warming to melting. The slow warming rate is created by taking the sample to the top of the −135° C. freezer and the […] warming rate is generated by placing the plastic container in the mixture of 30% DMSO/H2O at room temperature. After rewarming, the vitrification solution was removed in a stepwise manner on ice to keep the tissues cold and minimize cytotoxicity due to the presence of residual cryoprotectants.

[3] = tested on: heart valve tissues (pulmonary artery, leaflet and cardiac muscle); assay: alamarBlue metabolic activity of heart valve tissues vitrified in 4 mL of solution (FIG. 1); format: cell-based; conditions: for post-vitrification viability: 0.6M sugar in DP6, VS49 and VS55; for leaflet viability: 4 mL; for leaflet viability / tissue viability: p<0.05; for tissue viability: trehalose and sucrose supplementation of vitrification formulations (VS49, DP6, VS55), compared with no additive controls, N=6
Protocol: as §1
Data shown in % of control VS55 results performed with the final cryoprotectant concentration added at 4° C., N=6, *p<0.05 by ANOVA or #T-test compared with no additive controls.
In this experiment, addition of either 600 mM trehalose or sucrose to VS49, DP6 and VS55 formulations was compared. The tissues were vitrified in 4 mL of solution. Trehalose supplementation increased leaflet viability in VS49 and VS55. Sucrose supplementation increased leaflet viability in all three formulations. […] This led to plans to test DP6 with sugars more thoroughly in later experiments. Repetitive experiments were performed using sucrose supplemented VS55 and obtained outcomes similar to those for supplemented VS55 shown here.
Bonafide excess heart valves or blood vessels were obtained from animals employed in other IACUC approved research studies or from a food processing plant post-mortem. The tissues were dissected, rinsed and placed in sterile cups with ice-cold tissue culture medium containing antibiotics overnight and then allocated for in vitro studies. The heart valve tissues in FIG. 1 each consisted of a piece of tissue consisting of pulmonary artery, leaflet and cardiac muscle. They were separated and individually assayed for viability using an assay that assesses metabolic activity that is described below.
as §2, §3
Metabolic Activity—An alamarBlue™ assay will be used to evaluate the metabolic activity of control and treated tissue samples. Tissues were incubated in 2 ml of DMEM+10% FBS culture medium for one hour to equilibrate followed by the addition of 20% AlamarBlue under standard cell culture conditions for 3 hours. AlamarBlue is a non-toxic fluorometric indicator based on detection of metabolic activity. Fluorescence was measured at an excitation wavelength of 544 nm and an emission wavelength of 590 nm. […] Control and experimental tissues were dried at the end of each experiment, weighed, and results expressed as relative fluorescence units (RFU)/mg tissue dry weight.

SMILES | sugar concentrations in VS55 that demonstrated ice (white) formation [1] | visible ice formation [2] | ice formation during cooling and rewarming [2] | post-vitrification viability [3] | leaflet viability ([3]; 600 mM trehalose added to VS49 and VS55) | tissue viability [3] | sugar concentrations in VS55 free of ice ([1]; after 7 days at −80 C, 30 mL samples) | leaflet viability ([3]; 600 mM sucrose added to all three formulations (VS49, DP6, VS55))
OC[C@H]1O[C@H](O[C@H]2O[C@H](CO)[C@@H](O)[C@H](O)[C@H]2O)[C@H](O)[C@@H](O)[C@@H]1O [trehalose] | 0 to 0.6 M | prevents visible ice formation | no ice formation | increases | increased | significant increases | – | –
OC[C@H]1O[C@@](CO)(O[C@H]2O[C@H](CO)[C@@H](O)[C@H](O)[C@H]2O)[C@@H](O)[C@@H]1O [sucrose] | 0 to 0.4 M | prevents visible ice formation | no ice formation | increases | – | significant increases | 0.6 M | increased
